Literature values as cited in patent US20100284933A1, “Biomarkers of Multiple Sclerosis” (Biogen Idec MA Inc., priority 2006, published 2010).

Tests used:
[1] = molecular target: PBRs (Homo sapiens, UniProt P30536); details: background statement
[2] = test system: CBRs; details: background statement

Sequence of PBRs (P30536 whole entry): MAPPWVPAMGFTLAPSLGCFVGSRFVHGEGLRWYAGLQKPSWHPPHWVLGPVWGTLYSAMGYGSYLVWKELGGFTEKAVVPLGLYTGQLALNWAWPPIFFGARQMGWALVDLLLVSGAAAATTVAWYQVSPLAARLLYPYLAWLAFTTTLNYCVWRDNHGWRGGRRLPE

Row | Structure (SMILES) | affinity for PBRs [1] | affinity for CBRs [2]
1 | CCC(C)N(C)C(=O)c1cc2ccccc2c(-c2ccccc2Cl)n1 (stereo not shown) [PK 11195] | high affinity | negligible affinity
2 | CN1C(=O)CN=C(c2ccc(Cl)cc2)c2cc(Cl)ccc21 [Ro 5-4864, 4′-chlorodiazepam] | high affinity | negligible affinity
